Results published in article PMC3914206.

Legend:
[1] = biological target: T1, panel of 442 kinases (Homo sapiens, UniProt Q9C098); type: binding; settings: Compound Concentration 10 µM
T1 construct: purchased KINOMEscan
Text: (§1) We assessed the selectivity of members of this scaffold using the KINOMEscan methodology across a near comprehensive panel of 442 kinases [[18,27]].

[2] = biological target: T2, panel of 442 kinases (Homo sapiens, UniProt Q59H18); type: binding; settings: kinase TNNI3K; compound concentration 10 µM
T2 construct: purchased KINOMEscan
T2 sequence (Q59H18 1-835): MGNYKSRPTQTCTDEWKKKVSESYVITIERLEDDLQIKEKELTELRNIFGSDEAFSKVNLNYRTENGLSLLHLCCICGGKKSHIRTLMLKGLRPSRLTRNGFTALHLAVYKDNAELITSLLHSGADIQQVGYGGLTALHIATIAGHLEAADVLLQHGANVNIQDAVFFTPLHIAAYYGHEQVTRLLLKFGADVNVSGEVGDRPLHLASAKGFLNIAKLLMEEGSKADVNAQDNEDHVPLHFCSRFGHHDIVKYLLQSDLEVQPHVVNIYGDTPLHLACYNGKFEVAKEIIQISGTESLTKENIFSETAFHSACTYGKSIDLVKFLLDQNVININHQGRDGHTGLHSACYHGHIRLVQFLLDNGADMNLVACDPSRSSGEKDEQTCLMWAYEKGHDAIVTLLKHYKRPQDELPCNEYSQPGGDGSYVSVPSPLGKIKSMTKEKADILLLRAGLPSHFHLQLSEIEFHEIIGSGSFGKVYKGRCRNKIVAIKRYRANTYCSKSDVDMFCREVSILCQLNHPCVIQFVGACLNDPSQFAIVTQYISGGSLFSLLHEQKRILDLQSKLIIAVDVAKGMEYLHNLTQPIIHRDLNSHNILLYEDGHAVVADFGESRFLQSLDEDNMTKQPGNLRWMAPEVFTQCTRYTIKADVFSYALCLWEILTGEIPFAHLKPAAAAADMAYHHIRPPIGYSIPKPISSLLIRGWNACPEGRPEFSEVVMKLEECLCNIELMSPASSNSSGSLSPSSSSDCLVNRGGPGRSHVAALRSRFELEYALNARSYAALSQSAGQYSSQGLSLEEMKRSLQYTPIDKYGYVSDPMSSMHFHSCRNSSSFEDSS
Text: as §1

T1 sequence (Q9C098 whole entry): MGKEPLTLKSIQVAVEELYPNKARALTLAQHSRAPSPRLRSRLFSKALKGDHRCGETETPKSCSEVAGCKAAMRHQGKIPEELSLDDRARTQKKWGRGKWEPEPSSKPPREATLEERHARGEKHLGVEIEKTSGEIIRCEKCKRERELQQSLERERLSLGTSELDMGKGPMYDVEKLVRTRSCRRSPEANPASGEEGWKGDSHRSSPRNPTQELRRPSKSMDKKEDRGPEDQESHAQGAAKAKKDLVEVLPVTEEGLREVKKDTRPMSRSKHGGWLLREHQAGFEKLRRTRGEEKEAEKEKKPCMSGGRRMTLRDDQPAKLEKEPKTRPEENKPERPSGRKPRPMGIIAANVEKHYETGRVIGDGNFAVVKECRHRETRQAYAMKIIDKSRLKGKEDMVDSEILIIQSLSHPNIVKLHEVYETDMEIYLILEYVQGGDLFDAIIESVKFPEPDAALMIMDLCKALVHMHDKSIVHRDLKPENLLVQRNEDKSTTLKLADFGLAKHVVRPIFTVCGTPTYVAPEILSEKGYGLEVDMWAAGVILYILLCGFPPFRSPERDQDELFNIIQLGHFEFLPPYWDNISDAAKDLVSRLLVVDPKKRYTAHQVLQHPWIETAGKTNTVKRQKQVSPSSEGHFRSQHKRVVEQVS

SMILES	KINOMEscan: DCAMKL3 [1]	% Ctrl, TNNI3K [2]
COc1cc(C(=O)N2CCC(N3CCN(C)CC3)CC2)ccc1Nc1ncc2c(n1)N(C1CCCC1)c1ccccc1C(=O)N2C [Compound 25, 11-cyclopentyl-2-((2-methoxy-4-(4-(4-methylpiperazin-1-yl)piperidine-1-carbonyl)phenyl)amino)-5-methyl-5H-benzo[e]pyrimido[5,4-b][1,4]diazepin-6(11H)-one]	100	82 % Ctrl
CCOc1cc(C(=O)N2CCC(N3CCN(C)CC3)CC2)ccc1Nc1ncc2c(n1)N(C1CCCC1)c1ccccc1C(=O)N2C [Compound 26]	92	89 % Ctrl
COc1cc(C(=O)N2CCC(N3CCN(C)CC3)CC2)ccc1Nc1ncc2c(n1)N1CCc3cccc(c31)C(=O)N2C [Compound 24]	–	73 % Ctrl
COc1cc(C(=O)N2CCC(N3CCN(C)CC3)CC2)ccc1Nc1ncc2c(n1)N(C)c1ccccc1C(=O)N2C [15 (LRRK2-IN-1)]	90	100 % Ctrl
